Three molecules from patent publication US20210309669A1, “Heterocyclic Spiro Compounds As MAGL Inhibitors” (Pfizer Inc., priority 2018, published 2021) can be followed below.

Data set [1] is described as follows: In vitro intrinsic clearance in human liver microsomes (HLM). Conditions: pH 7.4, 1 μM substrate, NADPH, 37° C., read-out: HLM CLint, app. The format is in vitro ADME. As to the method: Test Compounds (Example 1-3 and Comparative-Compounds 1-4) were prepared as solutions in DMSO. The final concentration of DMSO in the incubation was <0.1% (v/v). […] (all final concentrations) in a 384-well plate. The reaction mixture was pre-warmed at 37° C. for 10 min prior to initiation of the incubation. The incubation was quenched with acetonitrile containing internal standards at the following time points: 1, 4, 7, 12, 20, 25, 45, and 60 min (individual incubation plates per time point) with a subsequent addition of water. The samples were vortexed followed by centrifugation and the supernatant was analyzed by LC/MS-MS using multiple reaction monitoring. For control experiments, NADPH was omitted from the incubations.
The microsomal t½ (min) was obtained from a log-linear plot of the substrate depletion versus incubation time and was scaled to hepatic intrinsic clearance (CLint,app (μL/min/mg protein) using the following equation: […]
For orientation: Liver microsomes are vesicles of endoplasmic reticulum, rich in cytochrome P450 enzymes.

Data set [2] in a line: In vitro intrinsic clearance in human hepatocytes. The format is in vitro ADME. The note with it: 1 μM substrate, human hepatocytes 0.5 million viable cells per mL, 37° C. As to the method: Test Compounds (Example 1-3 and Comparative-Compounds 1-4) were prepared as solutions in DMSO at 3 mM which were then diluted in media containing WEM. The final concentration of DMSO in the incubation was 0.03% (v/v). The in vitro half-life (t½) of each compound was determined in incubations containing substrate (1 μM), human hepatocytes (0.5 million viable cells per mL final concentration) in media containing WEM, 50 mM HEPES buffer (pH 7.4), and 26 mM sodium bicarbonate at 37° C. (all final concentrations) in a 96-well plate. The reaction mixture was pre-warmed at 37° C. for 30 min prior to the initiation of the incubation. The incubation was quenched with acetonitrile containing internal standards at the following time points: 0, 5, 15, 30, 60, 120, and 240 min (individual incubation plates per time point). The samples were vortexed followed by centrifugation. An aliquot of supernatant was transferred to a clean 96-well plate and analyzed by LC/MS-MS using multiple reaction monitoring. For control experiments, hepatocytes were omitted from the incubations.
The hepatocyte t½ (min) was obtained from a log-linear plot of the substrate depletion versus incubation time and was scaled to hepatic intrinsic clearance (CLint,app (μL/min/million cells) using the following equation: […]

Data set [3] is described as follows: Mouse subcutaneous neuropharmacokinetics study. The format is in vivo, Male C57Bl6 mice. The note with it: male, C57Bl6, mouse, brain (cerebellum homogenate) and plasma, sc, subcutaneous dose of 1 mg/kg, read-out: Mouse Cb,u/Cp,u. As to the method: The neuropharmacokinetics studies in mouse were conducted at Wuxi (Shanghai, China) with bioanalysis conducted at BioDuro (Beijing, China) with the exception of the Comparative-compound 3, which bioanalysis was conducted at Wuxi. All in vivo studies were conducted in accordance with regulations and established guidelines using protocols reviewed and approved by the Pfizer Worldwide Research and Development (WRD, or other) Institutional Animal Care and Use Committee.
Male C57Bl6 mice were maintained on a 12-h light/dark cycle in a temperature- and humidity-controlled environment with free access to food and water. The test compounds (Examples 1 and 2 and Comparative Compounds 1-3) were administered as a subcutaneous dose of 1 mg/kg which was delivered in a dose volume of 10 mL/kg. The dose solution for all compounds was formulated in 5% DMSO/5% cremophor/90% saline. Blood and brain samples were collected at 0.5, 1, 2, 4, 8, 12, and 24 h post-dose (n=3 per time point). Blood samples were collected into tubes containing sodium fluoride and 4-(2-aminoethyl)benzenesulfonyl fluoride hydrochloride (AEBSF; final concentration 2 mg/mL) to inhibit hydrolase activity and placed on wet ice. Following centrifugation to afford plasma, the samples were transferred to polypropylene tubes and stored frozen at −20° C. to −80° C. until analysis. Immediately following blood collection the mice were euthanized by cervical dislocation and the brains were removed. The cerebellum was immediately frozen in liquid nitrogen and stored at −80° C. until analysis.
Cerebellum samples were thawed, diluted 1:4 (w/v) with water, and homogenized using an H-speed dispersator. Standards and controls were prepared in a similar manner using a brain homogenate prepared from untreated animals. The plasma standard curves were generated with species specific plasma. All plasma and brain homogenate samples were quantified via LC/MS-MS using multiple reaction monitoring with non-validated methods.
Equilibrium dialysis using standard procedures [See Di et al., “Species independence in brain tissue binding using brain homogenates”; Drug Metab Dispos 39:1270-1277, 2011) were used for determination of the unbound fraction of the test compounds (Examples 1 and 2 and Comparative Compounds 1-3) in mouse plasma (fu,p; see Di et al., “impact of recovery on fraction unbound using equilibrium dialysis”; J Pharm Sci 101:1327-1335, 2012) and unbound fraction in rat brain homogenate (fu,b; see Di et al., “Species independence in brain tissue binding using brain homogenates”; Drug Metab Dispos 39:1270-1277, 2011). The determination of the unbound fraction in plasma also included the addition of AEBSF at a final concentration of 2 mg/mL to the incubation.
The pharmacokinetic parameters were computed by non-compartmental analysis using Watson Bioanalytical LIMS version 7.5. The AUC values were calculated using the linear trapezoidal method for both brain and plasma. Measured total plasma (Cp) and brain (Cb; assuming brain tissue density of 1 g/mL) concentrations were converted to unbound (free) values using the matrix specific binding factor (fu, p or fu,b) to determine free plasma (Cp,u) and free brain (Cb,u) values. All neurocompartmental ratios (Cb,u/Cp,u) were calculated through use of AUC values with the exception of Comparative Compounds 1 and 2 which used the mean of individual animal values due to insufficient data to calculate an AUC value.

Data set [4] is described as follows: Dog intravenous pharmacokinetic study. Conditions: male, beagle, IV dose of 1 mg/kg, plasma, read-out: Dog t1/2 (converted). The data set is classed as in vivo, Male beagle dogs. The method, then:
The pharmacokinetic studies in dog were conducted at Pfizer Global Research and Development (Groton, Conn.). All in vivo studies were conducted in accordance with regulations and established guidelines using protocols reviewed and approved by the Pfizer Worldwide Research and Development (WRD, or other) Institutional Animal Care and Use Committee.
Male beagle dogs were fasted overnight with water provided ad libitium. The dogs were fed at approximately 2-4 h post-dose. The dogs (n=2) were administered an IV bolus via the cephalic vein. Compounds of Examples 1-3 were tested along with the following four comparative compounds.
All test compounds were administered an IV dose of 1 mg/kg of the specified compound which was delivered in a dose volume of 0.5 mL/kg. The dose solution was formulated in 10% PEG400/90% of 23% (w/v) HPBCD in de-ionized water for the following test compounds: Example 1, Example 2, and Example 3; in 20% SBECD (sulfobutyl either β-cyclodextrin) for Comparative-Compound 3; in 23% (w/v) HPBCD (hydroxypropyl β-cyclodextrin) in water for Comparative Compound 2; in 12.5.% SBECD in water with 0.25% 0.1N HCl to pH 5 for Comparative Compound 1. Serial blood samples were collected from each dog via the jugular vein prior to dose administration and at the following time points post-dose: 0.083, 0.25, 0.5, 1, 2, 4, 7, and 24 h for all compounds with an additional time point of 0.016 h collected for Comparative Compound 1 only. Blood samples were collected into tubes containing EDTA and placed on wet ice. Following centrifugation to afford plasma, the samples were transferred to polypropylene tubes and stored frozen at −20° C. to −80° C. until analysis.
All plasma samples were quantified via liquid chromatography/tandem mass spectrometry (LC/MS-MS) using multiple reaction monitoring with non-validated methods. The plasma standard curves were generated with species specific plasma. Pharmacokinetic parameters were determined by non-compartmental analysis using Watson LIMS software version 7.4 (Thermo Fisher Scientific, Waltham, Mass.). The area under the concentration versus time curve (AUC) was calculated from the first time point to the last time point with measurable drug concentration using a linear trapezoidal rule. The area under the concentration versus time curve from the first time point to time infinity (AUC(0-inf)) was calculated by extrapolation from the time point where the last measurable concentration occurred to time infinity by dividing the observed concentration at the last time point by the elimination rate constant determined using linear regression of plasma concentration versus time data. The plasma clearance (CLp) was calculated by the equation CLp=dose/AUC(0-inf). The elimination half-life (t½) was calculated using the following equation t1/2=ln 2/k; k is equal to the rate constant of elimination calculated by the least squares of the log transformed data.

Regarding `CN([C@H]1COC2(CCN(C(=O)O[C@H](CO)C(F)(F)F)CC2)C1)S(=O)(=O)c1ccccc1` [Comparative-Compound 3, (2R)-1,1,1-trifluoro-3-hydroxypropan-2-yl (3R)-3-[methyl(phenylsulfonyl)-amino]-1-oxa-8-azaspiro[4.5]decane-8-carboxylate], the microsomal CLint at 1 μM in data set [1] turned out to be 14.8 µL/min/mg. The “HHEPs CLint, app” value in data set [2] came to 10.6 μL/min/million. In addition, the Kp,uu (unbound brain/unbound plasma ratio) in data set [3] stood at 0.51. Further, the half-life in data set [4] is 5 h.
Taken in the same sequence, the figures for `CN([C@H]1COC2(CCN(C(=O)O[C@H](CO)C(F)(F)F)CC2)C1)S(=O)(=O)C1CC1` [Comparative-Compound 2, (2R)-1,1,1-trifluoro-3-hydroxypropan-2-yl (3R)-3-[(cyclopropylsulfonyl)-(methyl)amino]-1-oxa-8-azaspiro[4.5]decane-8-carboxylate] were below 8 µL/min/mg, below 3.52 μL/min/million, 0.29 and 1.31 h.
As to `CN([C@H]1COC2(CCN(C(=O)O[C@H](CO)C(F)(F)F)CC2)C1)S(=O)(=O)CC1CC1` [Comparative-Compound 1, (2R)-1,1,1-trifluoro-3-hydroxypropan-2-yl (3R)-3-{[(cyclopropylmethyl)sulfonyl](methyl)amino}-1-oxa-8-azaspiro[4.5]decane-8-carboxylate], the microsomal CLint at 1 μM in data set [1] is below 12.5 µL/min/mg. For the same molecule, the “HHEPs CLint, app” value in data set [2] came to 5.5 μL/min/million. Moreover, the Kp,uu (unbound brain/unbound plasma ratio) in data set [3] was found to be 0.18. The half-life in data set [4] is 0.5 h.
